The nature of this experiment: The compound was tested for inhibition of streptavidin binding to the TentaGel-bound Ac-HPQFG peptide.

Positions of bridges follow the written chain, without caps; N, C: chain ends. Residues, ends and D or L forms follow the SMILES beside them. A value given as a limit tells only on which side of the number the result lay.

Broadly, the IC50 is the concentration that inhibits the measured activity by half. Turning to Ac-AHPQFPAEK-NH2, the IC50 is 136 µM.

Turning to Ac-AHPQFGAEK-NH2, the IC50 was 204 µM.

In turn, `C[C@@H]1NC(=O)CC[C@@H](C(=O)N[C@@H](CCCCN)C(N)=O)NC(=O)[C@H](C)NC(=O)[C@H](Cc2ccccc2)NC(=O)[C@H](Cc2c[nH]cn2)NC(=O)CNC(=O)[C@H](Cc2ccc(O)cc2)NC(=O)[C@H](CCC(N)=O)NC1=O` (AQYGHFAEK-NH2; lactam N-8) displayed an IC50 of over 5000 µM.

`C[C@@H]1NC(=O)CC[C@@H](C(=O)N[C@@H](CCCCN)C(N)=O)NC(=O)[C@H](C)NC(=O)[C@@H]2CCCN2C(=O)[C@H](Cc2ccccc2)NC(=O)[C@H](CCC(N)=O)NC(=O)[C@@H]2CCCN2C(=O)[C@H](Cc2c[nH]cn2)NC1=O` (AHPQFPAEK-NH2; lactam N-8): the IC50 was found to be 0.128 µM.

In turn, `CC[C@H](C)[C@H](NC(=O)[C@H]1CSSC[C@H](NC(=O)[C@H](CCC(=O)O)NC(=O)[C@H](C)N)C(=O)N[C@@H](Cc2c[nH]cn2)C(=O)N2CCC[C@H]2C(=O)N[C@@H](CCC(N)=O)C(=O)NCC(=O)N2CCC[C@H]2C(=O)N2CCC[C@H]2C(=O)N1)C(=O)N[C@@H](CCC(=O)O)C(=O)NCC(=O)N[C@@H](CCCN=C(N)N)C(=O)N[C@@H](CCCCN)C(N)=O` returned an IC50 of 0.73 µM.

As to `C[C@@H]1NC(=O)CNC(=O)[C@H](Cc2ccccc2)NC(=O)[C@H](CCC(N)=O)NC(=O)[C@@H]2CCCN2C(=O)[C@H](Cc2c[nH]cn2)NC(=O)[C@H](C)NC(=O)CC[C@@H](C(=O)N[C@@H](CCCCN)C(N)=O)NC1=O` (AHPQFGAEK-NH2; lactam N-8), the IC50 was determined as 19 µM.
